As usually defined, the IC50 is the concentration needed to halve the response being measured. Higher therefore signals lower potency.

This passage reports IC50 results from US11629135B2 (JUBILANT PRODEL LLC, priority 2017, dated 2023).

The target in the experiment is T1, PD-1/PD-L1 interaction (Homo sapiens, UniProt Q9NZQ7).
T1 construct: Tag1 or Tag2 (undisclosed kit tag); purchased CisBio 63ADK000CPAPEG
T1 sequence (Q9NZQ7 19-238 limits assumed): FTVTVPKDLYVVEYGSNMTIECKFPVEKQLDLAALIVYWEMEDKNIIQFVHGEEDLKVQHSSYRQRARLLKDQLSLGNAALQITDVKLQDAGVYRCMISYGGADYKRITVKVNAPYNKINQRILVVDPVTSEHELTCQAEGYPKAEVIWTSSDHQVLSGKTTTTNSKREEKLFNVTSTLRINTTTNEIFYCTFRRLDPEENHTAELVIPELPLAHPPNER
The experiment is described as follows: PD-1/PD-L1 Homogenous Time-Resolved Fluorescence (HTRF) binding assay. Conditions: Biochemical PD1/PD-L1 inhibition. The protocol:
PD-L1 Enzyme Assay: Homogenous Time-Resolved Fluorescence (HTRF) Binding Assay
All binding studies were performed using PD-1/PD-L1 Binding Assay Kit from CisBio (Catalog #63ADK000CPAPEG), according to the manufacturer's protocol. The interaction between Tag1-PD-1 and […] was detected by anti-Tag1-Eu^3+ (HTRF donor) and anti-Tag2-XL665 (HTRF acceptor). When the donor and acceptor antibodies were brought to close proximity due to PD-1 and PD-L1 binding, excitation of the donor antibody triggered fluorescent resonance energy transfer (FRET) towards the acceptor antibody, which in turn emitted specifically at 665 nm. This specific signal is positively proportional to PD-1/PD-L1 interaction. The compounds blocking PD-1/PD-L1 interaction will cause a reduction in HTRF signal. The necessary reagents were mixed in the following order: 2 μl compounds (or diluents buffer), 4 μl PD-L1 protein, 4 μl PD-1 protein. After an incubation of 15 minutes, 5 μl of anti-Tag1-Eu^3+ and 5 μl of anti-Tag2-XL665 were added. The plate was sealed and incubated at RT for 1 h. The fluorescence emission was read at two different wavelengths (665 nm and 620 nm) on a BMG PheraStar® multiplate reader. Results were calculated from the 665 nm and 620 nm fluorescence signal and expressed in HTRF ratio=(665 nm/620 nm)×[…].
On the technique in general: Time-resolved FRET reads energy transfer from a long-lived donor to a nearby acceptor.
`COc1nc(OCc2cccc(-c3ccc(F)cc3)c2C)ncc1CN1CCCC[C@H]1C(=O)O` [Compound 16, (S)-1-((2-((4′-fluoro-2-methyl-[1,1′-biphenyl]-3-yl)methoxy)-4-methoxypyrimidin-5-yl)methyl)piperidine-2-carboxylic acid] returned an IC50 of more than 500 nM.
On to `COc1nc(OCc2cccc(-c3ccccc3)c2C)ncc1CN1CCCC[C@@H]1C(=O)O` [Compound 15, (R)-1-((4-methoxy-2-((2-methyl-[1,1′-biphenyl]-3-yl)methoxy)pyrimidin-5-yl)methyl)piperidine-2-carboxylic acid], for which the half-maximal inhibitory concentration (IC50) was in the range of 100 to 500 nM.
As for `Cc1c(COc2ncc(CN3CCCCC3C(=O)O)c(OCc3ccccc3)n2)cccc1-c1ccccc1` (centres unmarked) [Compound 33, 1-((4-(benzyloxy)-2-((2-methyl-[1,1′-biphenyl]-3-yl)methoxy)pyrimidin-5-yl)methyl)piperidine-2-carboxylic acid], the concentration for half-maximal inhibition (IC50) was more than 500 nM.
`COc1nc(OCc2cccc(-c3ccccc3)c2C)ncc1CN1CCCC2(CCNC2=O)C1` (centres unmarked) [Compound 52, 7-((4-methoxy-2-((2-methyl-[1,1′-biphenyl]-3-yl)methoxy)pyrimidin-5-yl)methyl)-2,7-diazaspiro[4.5]decan-1-one] had an IC50 of more than 500 nM.
`COc1nc(OCc2cccc(-c3ccc4c(c3)OCCO4)c2C)nc(OC)c1CNCCNC(C)=O` [Compound 56, N-(2-(((2-((3-(2,3-dihydrobenzo[b][1,4]dioxin-6-yl)-2-methylbenzyl)oxy)-4,6-dimethoxypyrimidin-5-yl)methyl)amino)ethyl)acetamide]: the half-maximal inhibitory concentration (IC50) is less than 100 nM.
